Assay results taken from patent US12310946B2, “Pharmaceutical composition for oral administration of edaravone and method of administering same” (MITSUBISHI TANABE PHARMA CORPORATION, priority 2020, dated 2025).
Where two headings read alike, the source gives them in different places.

What was measured:
[1] = Clinical study #2: PK of edaravone oral formulation (formula #2), fasted vs 4 h after high-fat meal; format: in vivo; settings: male, human, plasma, 100 mg, 100 mg oral, mean (n = 9)
Description: Effects of meal consumption before administration of the edaravone oral formulation on the pharmacokinetics of edaravone were evaluated. Specifically, clinical studies #1, #2, and #3 described below were conducted on separate days in Japanese healthy adult male subjects. In each of clinical studies #1, #2, and #3, one dose each of edaravone oral formulations (edaravone suspensions) of formulas #1, #2, and #3 shown in Table 1 below were used respectively and administered orally once during the study period. For each clinical study, a reference study was conducted (reference example), in which the edaravone oral formulation was administered in fasted conditions as described below, and in each clinical study and the corresponding reference study, the edaravone oral formulation was each administered to the same subjects.
For the high-fat meal, a meal with total calories per meal of 800 to 1000 kilocalories and calorie intake from lipid of 50% was used. For the standard meal, a meal with total calories per meal of 400 to 500 kilocalories and calorie intake from lipid of 25% was used. For the light meal, a liquid-type nutritional supplement with total calories per meal of 250 kilocalories (enteral nutritional supplement: Ensure Liquid (trade name)) was used.
The edaravone oral formulation (formula #2) was administered orally to the subjects 4 hours after high-fat meal consumption. Blood samples were each collected before the administration, and 5 minutes, 15 minutes, 30 minutes, 1 hour, 1.5 hours, 2 hours, 4 hours, 6 hours, 8 hours, 12 hours, 24 hours, 36 hours, and 48 hours after the administration, and the concentrations of unchanged edaravone in plasma were measured. On the other hand, as a reference example, the edaravone oral formulation was administered orally to the same subjects in fasted conditions, blood samples were collected, and the concentrations of unchanged edaravone in plasma were measured in the same manner. For the administration in fasted conditions, the edaravone oral formulation was administered orally after a lapse of 10 hours or longer from the previous meal consumption. None of the subjects consumed a next meal until the blood sample collection 4 hours after the administration was completed.

[2] = Clinical study #9: PK of edaravone oral formulation (formula #3) in healthy adults (reference group), oral, fasted; format: in vivo; settings: both sexes, human, plasma, 105 mg oral, healthy (n = 42), mean, before weight correction
Description: On the other hand, a clinical study #9 shown below was conducted in healthy adult male and female subjects (42 in total) (the reference group). That is, the edaravone oral formulation of the formula #3 was administered orally to the reference group in fasted conditions after a lapse of 10 hours or longer. Then, blood samples were each collected before the administration, and 5 minutes, 15 minutes, 30 minutes, 45 minutes, 1 hour, 1.5 hours, 2 hours, 4 hours, 6 hours, 8 hours, 10 hours, 12 hours, 24 hours, 36 hours, and 48 hours after the administration, and the concentrations of unchanged edaravone in plasma were measured.
The resulting PK parameters were corrected for body weight of each subject adjusted to 70 kg by a proportional calculation for each of the patient group and the reference group. In addition, the results of the PK parameters after correction of the patient group are shown as box-whisker plots of #9 (the reference group), and individual plots of #5 (the patient group) and #9 (the reference group) in FIG. 3. In FIG. 3, X represents a mean value. […] Thus, the difference in the Cmax and the difference in the AUC before weight correction between the patient group and the reference group seen in Table 9 below are considered due to the difference in body weight between the patient group and the reference group, and the difference in the Cmax and the difference in the AUC after weight correction between the patient group and the reference group observed in FIG. 3 are each considered to be within the range of error.

[3] = Clinical study #10: PK of edaravone oral formulation (formula #7, 120 mg), standard meal 30 minutes after administration vs fasted; format: in vivo, human; settings: 120 mg oral; for Cmax / Tmax / half-life / AUC(0-t): male, human, plasma, po, 120 mg, mean; for AUC(0-t): read-out: AUC0-24h
Description: Effects of meal consumption 30 minutes after administration of the edaravone oral formulation on the pharmacokinetics of edaravone were evaluated. Specifically, a clinical study #10 described below was conducted in Japanese healthy adult male subjects. In the clinical study #10, the edaravone oral formulation of the formula #7 (edaravone content of 120 mg) in Table 11 above was used and administered orally once during the study period. […]
As a post-administration consumption group, subjects in fasted conditions after a lapse of 10 hours or longer from meal consumption were orally administered with the edaravone oral formulation, […] Blood samples were each collected before the administration, and 15 minutes, 30 minutes, 1 hour, 1.5 hours, 2 hours, 4 hours, 6 hours, 8 hours, 12 hours, and 24 hours after the administration, and the concentrations of unchanged edaravone in plasma were measured. […] was carried out after the blood sample collection 30 minutes after the administration, and a subsequent meal was not consumed until the blood sample collection 4 hours after the administration was completed.
On the other hand, as a fasted group for reference, the edaravone oral formulation was administered orally to different subjects in fasted conditions, blood samples were collected, and the concentrations of unchanged edaravone in plasma were measured in the same manner.

[4] = formula #2, 4 h after high-fat meal
[5] = standard meal 30 minutes after administration vs fasted
[6] = formula #7, 30 min before low-fat meal (n = 6)

CC1=NN(c2ccccc2)C(=O)C1 [Edaravone, 3-methyl-1-phenyl-2-pyrazolin-5-one]
AUC(0-inf) [1, 4]: 1250 ng·h/mL | Cmax [1, 4]: 1010 ng/mL | Tmax [1, 4]: 28.2 min | half-life [1, 4]: 460 min | AUC(0-inf) ([1]; formula #2, fasted): 1650 ng·h/mL | Cmax ([1]; formula #2, fasted): 1810 ng/mL | Tmax ([1]; formula #2, fasted): 21.6 min | half-life ([1]; formula #2, fasted): 560 min | AUC(0-inf) [2]: 1760 ng·h/mL | Cmax [2]: 1660 ng/mL | Tmax [2]: 26.4 min | decrease in the AUC in comparison with the fasted group [3, 5]: about 14.5% | decrease in the Cmax in comparison with the fasted group [3, 5]: about 12.6% | Cmax [3, 6]: 1950 ng/mL | Tmax [3, 6]: 25.2 min | half-life [3, 6]: 276 min | AUC(0-t) [3, 6]: 1920 ng·h/mL | Cmax ([3]; formula #7, fasted (n = 6)): 1740 ng/mL | Tmax ([3]; formula #7, fasted (n = 6)): 22.8 min | half-life ([3]; formula #7, fasted (n = 6)): 308 min | AUC(0-t) ([3]; formula #7, fasted (n = 6)): 2240 ng·h/mL
